Laboratory results published in ChEMBL document CHEMBL3045009, “Synthesis and Biological Activity of the Functional Derivatives of 3- and 4-(Dimethyl-aminomethyl)-1,2-dithiolanes” (1992).

Assays:
Format in all cases: functional
Nilaparvata lugens = assay: Insecticidal activity against Nilaparvata lugens (brown planthopper) assessed as mortality at 50 ppm; settings: for mortality at 50 ppm: Nilaparvata lugens
Spodoptera litura = assay: Insecticidal activity against Spodoptera litura assessed as mortality at 500 ppm; settings: for mortality at 500 ppm: Spodoptera litura
Chilo suppressalis [1] = assay: Insecticidal activity against Chilo suppressalis (rice stem borer) assessed as mortality at 50 ug/g administered as topical application
Tetranychus urticae = assay: Acaricidal activity against Tetranychus urticae (two-spotted spider mite) assessed as mortality at 500 ppm; settings: for mortality at 500 ppm: Tetranychus urticae
Culex pipiens molestus = assay: Insecticidal activity against Culex pipiens molestus assessed as mortality at 5 ppm; settings: for mortality at 5 ppm: Culex pipiens
Chilo suppressalis [2] = assay: Insecticidal activity against Chilo suppressalis (rice stem borer) assessed as mortality compound administered as topical application

Compound	mortality at 50 ppm (Nilaparvata lugens) [%]	mortality at 500 ppm (Spodoptera litura) [%]	mortality (Chilo suppressalis [1]) [%]	mortality at 500 ppm (Tetranychus urticae) [%]	mortality at 5 ppm (Culex pipiens molestus) [%]	mortality (Nilaparvata lugens) [%]	mortality (Spodoptera litura) [%]	LD50 (Chilo suppressalis [2]) [mg/kg]	mortality (Tetranychus urticae) [%]	mortality (Culex pipiens molestus) [%]
CCOP(=O)(OCC)[C@]1(C#N)SC[C@H](CN(C)C)CS1.O=C(O)C(=O)O	80	10	60	100	100					
CN(C)CC1CSC(C(=O)c2ccccc2)(C(=O)c2ccccc2)SC1			100			100	0	13.5	80	100
CN(C)CC1CSC(C(=O)c2ccccc2)(C(=O)c2ccccc2)SC1.O=C(O)C(=O)O	100	0	100	100	100					
CN(C)C[C@H]1CS[C@](C#N)(c2ccc(Cl)cc2)SC1	100	0	100	70	100					
CN(C)C[C@H]1CS[C@@](C#N)(c2ccc(Cl)cc2)SC1	100	0	100	90	100					
CCN(CC)C(=O)[C@]1(C#N)SC[C@@H](CN(C)C)CS1.O=C(O)C(=O)O	100	100	100	100	95			5.8		
CCN(CC)C(=O)[C@]1(C#N)SC[C@H](CN(C)C)CS1			100			100	100	5.6	90	100
CCN(CC)C(=O)[C@]1(C#N)SC[C@H](CN(C)C)CS1.O=C(O)C(=O)O	80	100	100	100	100			7.2		
CCOP(=O)(OCC)[C@]1(C#N)SC[C@@H](CN(C)C)CS1.O=C(O)C(=O)O	100	70	100	100	100					
CCOC(=O)[C@H]1SC[C@H](CN(C)C)CS1.O=C(O)C(=O)O	30	0	0	100	5					
CN(C)CC1CSSSC1.O=C(O)C(=O)O	100	100	100	100	100			7.5		
CN(C)CC1CCSS1.O=C(O)C(=O)O (stereo unspecified)	80	30	100	100	100			4.3		
CN(C)CC1CSSC1.O=C(O)C(=O)O	100	90	100	100	100			11.4		
CN(C)CC(S)CCS.O=C(O)C(=O)O (stereo unspecified)	100	60	100	100	45					
CN(C)CC(CS)CS.O=C(O)C(=O)O	100	30	100	100	100					
CNC(=O)SCCC(CN(C)C)SC(=O)NC (stereo unspecified)	100	0	100	30	5					
CN(C)CC(CSC(=O)N(C)C)CSC(=O)N(C)C.O=C(O)C(=O)O	30	0	20	100	0					

Compound	mortality at 50 ppm (Nilaparvata lugens) [%]	mortality at 500 ppm (Spodoptera litura) [%]	mortality (Chilo suppressalis [1]) [%]	mortality at 500 ppm (Tetranychus urticae) [%]	mortality at 5 ppm (Culex pipiens molestus) [%]	mortality (Nilaparvata lugens) [%]	mortality (Spodoptera litura) [%]	LD50 (Chilo suppressalis [2]) [mg/kg]	mortality (Tetranychus urticae) [%]	mortality (Culex pipiens molestus) [%]
CC(C)NC(=O)SCC(CSC(=O)NC(C)C)CN(C)C			100			20	0		60	100
CSCCC(CN(C)C)SC (stereo unspecified)			0			10	0		20	0
CSCCC(CN(C)C)SC.O=C(O)C(=O)O (stereo unspecified)		0	0		0	30			100	
CCOC(=O)CSCC(CSCC(=O)OCC)CN(C)C.O=C(O)C(=O)O	40	0	0	80	0					
CN(C)CC1CS[S+]([O-])C1.O=C(O)C(=O)O (stereo unspecified)	100	70	100	100	0					
CN(C)CC(CCSS(=O)(=O)c1ccccc1)SS(=O)(=O)c1ccccc1 (stereo unspecified)	30	0	100	100	100			11.6		
CN(C)CC(CSS(=O)(=O)c1ccccc1)CSS(=O)(=O)c1ccccc1.O=C(O)C(=O)O	100	80	100	100	0					
CN(C)C[C@@H]1CCSC(C(=O)c2ccccc2)(C(=O)c2ccccc2)S1			100			90	10	7.1	100	40
CN(C)C[C@@H]1CCSC(C(=O)c2ccccc2)(C(=O)c2ccccc2)S1.O.O=C(O)C(=O)O	100		100	100			0	7.5		65
CC(=O)SCCC(CN(C)C)SC(C)=O (stereo unspecified)	80	10	100	100	80					
CN(C)CC(CCSC(=O)c1ccccc1)SC(=O)c1ccccc1.O.O=C(O)C(=O)O (stereo unspecified)			100			100	0		100	100
CN(C)CC(CCSC(=O)c1ccccc1)SC(=O)c1ccccc1.Cl (stereo unspecified)	100		100	100	95		50			
CCC(=O)SCCC(CN(C)C)SC(=O)CC.O=C(O)C(=O)O (stereo unspecified)	70	40	100	80	20					
CCOC(=O)C1SCC(CN(C)C)CS1 (mixture of isomers)	90	0	0	20	0					
CN(C)C(CSS(=O)(=O)c1ccccc1)CSS(=O)(=O)c1ccccc1 [BENSULTAP]								3.7		
CN(C)C1CSSSC1.O=C(O)C(=O)O [THIOCYCLAM HYDROGEN OXALATE]	100	20	100	80	100					
